From patent US20050158321A1, “Treatment of rheumatoid arthritis with galectin-3 antagonists” (Entelos, Inc., priority 2003, published 2005)

Legend:
[1] = test system: peripheral blood monocytes from healthy donors and rheumatoid arthritis patients; assay: Monocyte chemotaxis assay (96-well chemotaxis plates); type: cell-based, human; conditions: for migration of monocytes in combination with galectin-3: FIG. 14B, 14C
Protocol: Peripheral blood mononuclear cells (PBMCs) were isolated from 6 healthy volunteer donors and 6 rheumatoid arthritis (RA) patients following informed consent and in accordance with protocols approved by the AMC Medical Ethics committee. Donor blood was diluted with cold PBS and PBMCs isolated by centrifugation over Ficoll. The PBMC layer was recovered and washed twice with PBS. Cells were counted, and monocytes isolated using a Dynal monocytes negative isolation kit as per the manufacturer's instructions. Monocytes were resuspended at 2×10^6 cells/ml in RPMI medium containing 0.5% fetal calf serum.
Chemotaxis assays were performed using 96-well disposable chemotaxis plates (Neuroprobe, 8 μm diameter pore size). Wells were preincubated for 1 hour at 37° C. with medium alone (RPMI containing 0.5% fetal calf serum), murine anti-human galectin-3 antibody B2C10 (0.1, 1 or 3 μg/ml) or lactose (10 mM). Lactose is a non-specific inhibitor of galectin-3. Purified recombinant human galectin-3 (1, 10 or 100 nM) was also included in the preincubation step. 5×10^4 monocytes obtained from healthy donors were added to the top of the filter in triplicate wells and cells allowed to migrate for 90 minutes at 37° C. The filter was then washed with PBS, and adhering non-migrating cells removed from the top of the filter by wiping. Migrating cells within the filter Were visualized by staining with crystal violet solution and washing with water. Following air-drying overnight, a computer digital imaging analyzer was used to capture 20 high-powered (400× magnification) fields encompassing the complete transwell filter, and migrating cells counted manually. FIG. 12 provides the relative amount migration (chemotaxis) in the presence of varying levels of galectin-3 and inhibitors of galectin-3 activity (B2C10 and lactose).
In a second experiment, wells were preincubated for 1 hour at 37° C. with medium alone (RPMI containing 0.5% fetal calf serum), murine anti-human galectin-3 antibody B2C10 (0.1, 1 or 3 μg/ml) or lactose (10 mM). Lactose is a non-specific inhibitor of galectin-3. Purified recombinant human galectin-3 (1, 10 or 100 nM) was also included in the preincubation step. 5×10^4 monocytes obtained from rheumatoid arthritis patients were added to the top of the filter in triplicate wells and cells allowed to migrate for 90 minutes at 37° C. The filter was then processed as described above and migrating cells were counted manually. […]
Monocytes from 6 rheumatoid arthritis patient were stimulated with 6 different synovial fluids and monocyte chemotaxis was measured as described above in the presence of different concentrations of galectin-3 blocking antibody. […]

[2] = test system: rheumatoid arthritis; conditions: methotrexate treatment, known effect; cited from earlier work
[3] = test system: arthritis induced by monoclonal antibodies raised against type II collagen, plus lipopolysaccharide; assay: Inflammation, Collagen Arthritis, mAb in Mice (hind paw volume); type: in vivo, BALB/c mice
Protocol: Galectin-3 Ab was evaluated for possible anti-inflammatory activity in BALB/c mice with arthritis induced by monoclonal antibodies (mAb) raised against type II Collagen, plus lipoplysaccharide. Galectin-3 Ab (1, 0.5 and 0.25 mg/mouse×3) was administered intraperitoneally once daily for 3 consecutive days starting on day 3. Volumes of both hind paws were measured on days 5, 7, 10, 14 and 17 and the sum of both hind paw volumes was calulated. A 30% percent or more reduction (−30%) relative to the vehicle-treated group indicates significant.
Galectin-3 Ab, B2C10 from Pharmingen, was dissolved in distilled water. Test substance at 1, 0.5 and 0.25 mg/mouse and vehicle were each administered intraperitoneally once daily for 3 consecutive days starting on day 3. The dosing volume was 0.2 ml/mouse for the test compound or 10 ml/kg (PO) for indomethacin. All treatments are summarized below:
Collagen Arthritis, mAb Groups of 7 BALB/c strain mice, 6-7 weeks of age, were used for the induction of arthritis by monoclonal antibodies (mAbs) raised against type II collagen, plus lipopolysaccharide (LPS). A combination of 4 different mAbs (D8, F10, DI-2G and A2) totaling 4 mg/mouse was administered to the animals intravenously on day 0, followed by intravenous challenge with […] of LPS 72 hours later (day3). From one hour after LPS injection, Galectin-3 Ab (1, 0.5 and 0.25 mg/mouse) and vehicle were each administered intraperitoneally once daily for 3 consecutive days starting on day 3. Whereas, indomethacin which served as the positive control was administered orally (3 mg/kg) once daily for 3 consecutive days at the same time schedule as test compound. For each animal, volumes of both hind paws were measured using a plethysmometer with water cell (12 mm diameter) on Days 0, 5, 7, 10, 14 and 17. Percent inhibition of increase in volume was calculated by the following formula: Inhibition (%): [1−(Tn−T0)/(Cn−C0)]×100% • Where: • C0 (Cn): volume of day 0 (day n) in vehicle control • T0 (Tn): volume of day 0 (day n) in test compound-treated group.
Reduction of edema in the hind paws by 30% or more (^3 30%) is considered significant. In addition, body weight was documented during the testing period of day 0, 5, 7, 10, 14 and 17 in each animal percentage of body weight of each compound group at time points were calculated referring to the vehicle control group at each measurement day as 100%.

For “SDF-1: Stromal cell-Derived Factor-1, chemotactic cytokine”, the “migration of monocytes in combination with galectin-3” value ([1]; single healthy donor) was “induce migration”.

In the case of “MCP-1: Monocyte Chemotactic Protein-1, chemotactic cytokine”, the “migration of monocytes in combination with galectin-3” value ([1]; single healthy donor) is reported as “induce migration”.

In the case of “Galectin-3: purified recombinant human galectin-3”, the “induction of chemotactic activity, alone” value ([1]; healthy donor or RA peripheral blood monocytes, 1, 10 or 100 nM) is reported as “does not reproducibly induce chemotactic activity” and the “monocyte chemotaxis in the presence of 1 ng/ml fMLP” value ([1]; single healthy donor, FIG. 14A) is reported as “increases monocyte chemotaxis in a concentration dependent manner”.

In the case of `CN(Cc1cnc2nc(N)nc(N)c2n1)c1ccc(C(=O)N[C@@H](CCC(=O)O)C(=O)O)cc1` [Methotrexate, methotrexate], the “decrease of synovial cell density” value [2] is given as “approximately 30%”, the “decrease of the concentration of IL-6 in synovial tissue” value [2] is given as 93% and the “decrease of the rate of cartilage degradation” value [2] is given as “approximately 15%”.

With `COc1ccc2c(c1)c(CC(=O)O)c(C)n2C(=O)c1ccc(Cl)cc1` [Indomethacin, indomethacin] the “(%) Reduction of Edema vs. Vehicle Control” value (shortened to “(%) Reduction”) ([3]; Day 5, PO 3 mg/kg × 3, parenthesis = significant) was “(94) %”, the “(%) Reduction” value ([3]; Day 5, PO 3 mg/kg × 3, parenthesis = significant, listed as indomethacin) was 94% and the “(%) Reduction” value ([3]; Day 7, PO 3 mg/kg × 3, parenthesis = significant) was “(70) %”. For the same compound, the “(%) Reduction” value ([3]; Day 7, PO 3 mg/kg × 3, parenthesis = significant, listed as indomethacin) was 70%, the “(%) Reduction” value ([3]; Day 10, PO 3 mg/kg × 3, parenthesis = significant) was “(85) %” and the “(%) Reduction” value ([3]; Day 10, PO 3 mg/kg × 3, parenthesis = significant, listed as indomethacin) was 85%. The “(%) Reduction” value ([3]; Day 14, PO 3 mg/kg × 3, parenthesis = significant) was “(85) %”, the “(%) Reduction” value ([3]; Day 14, PO 3 mg/kg × 3, parenthesis = significant, listed as indomethacin) was 85% and the “(%) Reduction” value ([3]; Day 17, PO 3 mg/kg × 3, parenthesis = significant) was “(84) %”. For the same compound, the “(%) Reduction” value ([3]; Day 17, PO 3 mg/kg × 3, parenthesis = significant, listed as indomethacin) was 84%.
